What was measured:
[1] = Cytotoxicity assay (MTT), HPLF normal cells; format: cell-based; details: human, HPLF periodontal ligament fibroblasts (normal oral cells), non-tumor cells
Method: (§1) The cytotoxicity of the compounds 4a - 4j were assayed towards human tumor cell lines [gingival carcinoma (Ca9–22), oral squamous cell carcinoma (HSC-2)] and human normal oral cells [gingival fibroblasts (HGF), and periodontal ligament fibroblasts (HPLF)] as described [42, 54 – 56]. In brief, all cells were cultured in Dulbecco’s modified eagle’s medium (DMEM) supplemented with 10% fetal bovine serum (FBS). The following concentrations of the compounds in dimethylsulfoxide (DMSO) were added to the medium and incubated at 37 ° C for 48 h: 4a - 4j ([…]), melphalan (3.12, 6.25, 12.5, 25. 50, 100, 200 and […]) and 5-FU ([…]). The media that contained the same concentration of DMSO ([…], 0.03125, 0.0625, 0.125, 0.25, 0.5 or 1%) were used as controls since DMSO above 0.25% is cytotoxic. The viable cell numbers were determined by the 3-(4,5-dimethylthiazol-2-yl)-2,5-diphenyltetrazolium bromide (MTT) assay. The CC50 values were determined from dose-response curves.
(§2) Cytotoxicity’s of the compounds 4a - 4j were evaluated towards Ca9–22, HSC-2, HSC-3, and HSC-4 human oral squamous cell carcinoma cell lines as tumor cell lines and HGF, HPLF, and HPC human normal oral cells as nontumor cells (Table 1) according to the procedure in the literature [42, 54 – 56]. 5-Fluorouracil (5-FU) was used as a reference anticancer drug.

[2] = molecular target: hCA II (Homo sapiens, UniProt P00918); test: Carbonic anhydrase enzyme assay (esterase activity), hCA II; format: biochemical
From the text: (§3) Human CA isoforms (hCAI and hCAII) were purified by the sepharose - 4B – L - tyrosine sulfanilamide affinity segregation method as reported. […] Inhibitory effects of the compounds were investigated by measuring the esterase activity according to Verpoorte et al. as described in previous studies [61 – 63].
(§4) Vmax, maximal velocity; VImax, maximal velocity of inhibitor; I, inhibitor; Ki, the inhibitor constant.

[3] = Cytotoxicity assay (MTT), HGF normal cells; format: cell-based; details: human, HGF gingival fibroblasts (normal oral cells), non-tumor cells
Method: as §1, §2

[4] = tested on: oral squamous cell carcinoma (HSC-2) cells; test: Cytotoxicity assay (MTT), HSC-2; format: cell-based, human
Method: as §1, §2

[5] = tested on: gingival carcinoma (Ca9-22) cells; test: Cytotoxicity assay (MTT), Ca9-22; format: cell-based, human
Method: as §1, §2

[6] = tested on: HSC-3 oral squamous cell carcinoma cells; test: Cytotoxicity assay (MTT), HSC-3; format: cell-based; details: Homo sapiens, tumor cell line, 48 h
Method: as §1, §2

[7] = tested on: HSC-4 oral squamous cell carcinoma cells; test: Cytotoxicity assay (MTT), HSC-4; format: cell-based; details: Homo sapiens, tumor cell line, 48 h
Method: as §1, §2

[8] = Cytotoxicity assay (MTT), HPC normal cells; format: cell-based; details: human, HPC normal oral cells, non-tumor cells
Method: as §1, §2

[9] = tested on: human oral squamous cell carcinoma cell lines (Ca9-22, HSC-2, HSC-3, HSC-4); test: Cytotoxicity assay, all tumor cell lines (mean, TS1, PSE1); format: cell-based; details: mean of Ca9-22, HSC-2, HSC-3, HSC-4, read-out: Tumor cell lines CC50 mean (B)
Method: as §1, §2
The tumor selectivity (TS1 and TS2) of each compound was calculated as described in previously reported literature procedures and these figures are presented in Table 1. Based on the TS1 values, 4f and 4g which have 2,5 and 2,4-dimethoxy substituents had the highest TS1 values in a series with 22.4 and 22.2, respectively. On the other hand, the 3,4,5-trimethoxy substituted compound 4i (TS1: 19.6) had the […] TS1 value. […] As expected, they were in accordance with the literature findings [16 – 18]. The second calculation (TS2) considered the differences of sensitivity between the malignant (Ca9–22) and non-malignant (HGF) cells derived from the same tissue (gingiva). According to TS2 values obtained, 4i (3,4,5-trimethoxy) had the highest TS2 value of 43.
The desired properties for a lead compound are being both markedly cytotoxic and selectively toxic for tumors. PSE1 reflects general cytotoxicity and selectivity potency of the compound towards all cells used, whereas PSE2 seems more specified since it was considered for the same origin cells. When the compounds tested towards OSCC lines were considered in terms of PSE2 values of the compounds. The best poly-methoxylated compounds were 4i (with 3,4,5-trimethoxy, PSE2 = 461.5) ˃ 4f (with 2,5-dimethoxy, PSE2 = 425.1) ˃ 4g (with 2,4-dimethoxy, PSE2 = 405.4) while the best mono-methoxylated derivative was 4b (with 4-methoxy, PSE2 = 205).

[10] = Cytotoxicity assay, all non-tumor cells (mean); format: cell-based; details: human, normal oral cells HGF, HPLF and HPC (mean of the three), read-out: Non-tumor cell lines CC50 mean (D)
Method: as §1, §2

[11] = molecular target: hCA I (Homo sapiens, UniProt P00915); test: Carbonic anhydrase enzyme assay (esterase activity), hCA I; format: biochemical
hCA I, sequence (P00915 whole entry): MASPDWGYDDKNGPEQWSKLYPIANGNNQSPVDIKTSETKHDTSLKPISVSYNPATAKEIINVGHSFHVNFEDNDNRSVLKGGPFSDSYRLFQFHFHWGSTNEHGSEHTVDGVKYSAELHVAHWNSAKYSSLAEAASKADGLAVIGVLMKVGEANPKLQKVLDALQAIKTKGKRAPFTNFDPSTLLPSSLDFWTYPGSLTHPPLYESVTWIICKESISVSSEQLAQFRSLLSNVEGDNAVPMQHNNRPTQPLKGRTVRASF
From the text: as §3, §4

[12] = esterase activity, p-nitrophenyl acetate

COc1cc(C2=NN(c3ccc(S(N)(=O)=O)cc3)C(c3ccc4c(c3)OCO4)C2)ccc1O (stereo not shown) [4j, 4-[5-(1,3-Benzodioxol-5-yl)-3-(4-hydroxy-3-methoxyphenyl)-4,5-dihydro-1H-pyrazol-1-yl]benzenesulphonamide]
CC50 at 48 h [1]: 64.7 µM
Ki ([2]; Lineweaver-Burk plot): 9.3 ± 1.9 µM
IC50 [2, 12]: 20 µM
CC50 at 48 h [3]: 76.7 µM
CC50 ([4]; Homo sapiens, HSC-2, tumor cell line, 48 h, MTT): 26.7 µM
times of potency compared to 5-FU, HSC-2 ([4]; cytotoxicity relative to 5-FU): 9.8
CC50 ([5]; Homo sapiens, Ca9-22, tumor cell line, 48 h, MTT): 17 µM
times of potency compared to 5-FU, Ca9-22 ([5]; cytotoxicity relative to 5-FU): 1.3
CC50 [6]: 26.3 µM
CC50 [7]: 16.8 µM
CC50 at 48 h [8]: 54.3 µM
CC50 [9]: 21.7 µM
CC50 at 48 h [10]: 65.2 µM
melting point: 161 to 163 °C
Ki ([11]; Lineweaver-Burk plot): 29.8 ± 9.4 µM
IC50 [11, 12]: 17.9 µM
